{"source": "patent US7618643B2", "about": "“Growth factor delivery system for the healing of wounds and the prevention of inflammation and disease” (DirectContact LLC, priority 2002, dated 2009)", "key": {"[1]": {"system": "New Zealand white rabbits, eyes abraded with a needle", "assay": "rabbit model, eyes abraded with a needle, medicated contact lens in right eye", "assay_type": "in vivo", "experimental": "New Zealand white rabbits were anesthetized, and then both eyes were abraded with a needle. A control contact lens was placed in the left eye, and a medicated contact lens was placed in the right eye of each rabbit for up to 4 hours prior to euthanasia. Control contact lenses (etafilcon A, an ionic lens with 58% water content) were washed with phosphate-buffered saline (PBS) prior to insertion. […] Rabbits were visually scored on a 0-4 scale (0 being the best and 4 being the worst) for corneal edema (which is a measure of wound healing), inflammation, and exudate production."}, "[2]": {"system": "recurring epithelial defect", "assay": "human testing of medicated lens", "assay_type": "in vivo", "details": "polymacon B lens soaked in 400 ppb EGF for 24 hours; one human patient; one administration", "description": "This lens was placed in a human patient suffering from a recurring epithelial defect that was not responsive to traditional medical treatments. […] Desirably treatment lasts for at least one hour. This type of injury is normally treated by the repeated introduction of eye drops, sometimes as often as every 4-5 minutes. A contact lens of the present invention, however, was able to produce a positive result with only one administration."}, "[3]": {"system": "bovine corneal endothelial cells", "assay": "in vitro wound closure, endothelial cell sheets contacted with contact lenses", "assay_type": "cell-based", "description": "(§1) Ocular cells were placed into a sterile plastic dish. This dish contained a 5-mm disk. The purpose of the disk was to prevent cells from growing in the covered area. When the disk was removed, a 5-mm “wound” or “hole” was present.\n(§2) Contact lenses were then added to these cell sheets with the wounds. The lenses were left in contact with the cell sheets for a minimum of 30 minutes. Minimal medium was used to maintain the cell cultures. Cells were incubated at 35° C.±2° C. in 5% CO2. […] The contact lenses used were polymacon B, vifilcon A, and lidofilcon A hydrogel polymers.\n(§3) The cell sheets were then viewed over time, and the diameter of the hole was measured.\n(§4) The results are expressed in terms of closure of the in vitro wound over time.\n(§5) Closure rates were calculated by direct measurement of the diameter of the wound. Measurements were taken daily.\nEndothelial Cells and Tissue."}, "[4]": {"system": "rabbit corneal epithelial cells", "assay": "in vitro wound closure, epithelial cell sheets contacted with contact lenses", "assay_type": "cell-based", "details": "for healing: lens soaked in 10 ng/μL EGF", "description": "as §1, §2, §3, §4\nEpithelial Cells and Tissue. Epithelial (rabbit corneal epithelial cells) cells were seeded on a dish and contacted with control and EGF-containing contact lenses. […] At 72 hours, there was a 43% difference in the closure rate between the EGF-treated epithelial tissue and the controls. The hydrogel material that was used was vifilcon A, an ionic polymer with a water content of 55%.\nas §5"}, "[5]": {"details": "contact lens, 400 ppb HGH soak, right eye"}, "[6]": {"details": "polymacon B lens soaked in 10 ng/μL EGF, 72 hours"}, "[7]": {"details": "vifilcon A lens soaked in 10 ng/μL EGF, 48 hours"}, "[8]": {"details": "vifilcon A lens soaked in 10 ng/μL EGF, 72 hours"}}}
{"substance": "human growth hormone [HGH]", "values": [{"measurement": "toxicity to the ocular tissue", "setting": "[1]; contact lens, 400 ppb HGH soak", "value": "no toxicity was observed"}, {"measurement": "inflammation compared to control eyes", "setting": "[1]; [5]", "value": "reduction in inflammation"}, {"measurement": "wound healing compared to control eyes", "setting": "[1]; [5]", "value": "increased wound healing"}]}
{"substance": "epidermal growth factor [EGF]", "values": [{"measurement": "clinical efficacy (wound healing)", "setting": "[2]", "value": "Clinical efficacy (i.e., wound healing) was observed"}, {"measurement": "increase in the healing rate (wound closure rate) compared to controls", "setting": "[3]; lidofilcon A lens soaked in 10 ng/μL EGF, 48 hours", "value": 54, "unit": "%"}, {"measurement": "difference in healing rate compared to controls", "setting": "[3]; lidofilcon A lens soaked in 10 ng/μL EGF, 72 hours", "value": 44, "unit": "%"}, {"measurement": "difference in closure between treated and untreated groups", "setting": "[3]; [6]", "value": 62, "unit": "%"}, {"measurement": "wound closed", "setting": "[3]; [6]", "value": 80, "unit": "%"}, {"measurement": "difference in closure rate between EGF treated group and controls", "setting": "[3]; vifilcon A lens soaked in 5 ng/μL EGF, 48 hours", "value": 31, "unit": "%"}, {"measurement": "tissue healed", "setting": "[3]; vifilcon A lens soaked in 5 ng/μL EGF, 72 hours", "value": 53, "unit": "%"}, {"measurement": "difference in healing rates compared to a control", "setting": "[3]; [7]", "value": 73, "unit": "%"}, {"measurement": "tissue healed", "setting": "[3]; [8]", "value": "completely healed"}, {"measurement": "wound healing compared to control eyes", "setting": "[1]; etafilcon A lenses soaked in 400 ppb EGF, first two hours after treatment", "value": "healed wounds at an accelerated rate"}, {"measurement": "toxicity in rabbits", "setting": "[1]; etafilcon A lenses soaked in 400 ppb, 4 ppm or 10 ppm EGF", "value": "No toxicity was observed"}, {"measurement": "healing", "setting": "[4]; 48 hours", "value": 14, "unit": "%"}, {"measurement": "healing", "setting": "[4]; 72 hours", "value": 25, "unit": "%"}, {"measurement": "closure rate difference between controls and EGF treated", "setting": "[4]; vifilcon A lens soaked in 5.0 ng/μL EGF, 48 hours", "value": 21, "unit": "%"}, {"measurement": "difference in the closure rate", "setting": "[4]; vifilcon A lens soaked in 5.0 ng/μL EGF, 72 hours", "value": 21, "unit": "%"}, {"measurement": "difference in the closure rate between EGF-treated and non-EGF treated cells", "setting": "[4]; [7]", "value": 25, "unit": "%"}, {"measurement": "difference in the closure rate between EGF-treated and controls", "setting": "[4]; [8]", "value": 43, "unit": "%"}, {"measurement": "difference in the healing rates compared to a wound not contacted with any lens", "setting": "[4]; vifilcon A lens with EGF, 48 hours", "value": 31, "unit": "%"}]}
